From patent publication US20180028480A1, “METHODS OF REDUCING OR PREVENTING OXIDATIVE MODIFICATION OF MEMBRANE POLYUNSATURATED FATTY ACIDS” (Amarin Pharmaceuticals Ireland Limited, priority 2015, published 2018)

Assays:
[1] = Small angle x-ray diffraction of glucose-treated model membranes: structure and cholesterol domains (Example 4); details: for effect on membrane structure compared to control: 0 hours, 1:30 drug-to-phospholipid mole ratio, glucose 200 mg/dL
Procedure: Multilamellar vesicles (MLVs) were prepared as binary mixtures of DLPC (1.0 or 2.5 mg total phospholipid per sample) and cholesterol at a fixed cholesterol-to-phospholipid (C/P) mole ratio of 0.6:1. Component lipids (in chloroform) were transferred to 13×100 mm borosilicate culture tubes and combined with vehicle (ethanol) or an equal volume of fatty acid, vitamin E, or ATM stock solutions, each adjusted to achieve desired treatment concentrations. Samples were shell-dried under nitrogen gas and placed under vacuum for 1 h to remove residual solvent. After desiccation, each sample was resuspended in 1.0 mL glucose-containing saline to yield final phospholipid concentrations of 1.0 or 2.5 mg/mL (for lipid peroxidation or x-ray diffraction analysis, respectively). Lipid suspensions were then vortexed for 3 min at ambient temperature to form MLVs.
The membrane structural effects of glucose and the various compounds examined in this study were measured at 0, 72, and 96 hour intervals. Membrane lipid vesicles were oriented for x-ray diffraction analysis as described by others (e.g., Herbette et al., Biophys. J., vol. 20(2), pages 245-272 (1977)). Briefly, a 100 μL aliquot (containing 250 μg MLV) was aspirated from each sample and transferred to a Lucite® sedimentation cell fitted with an aluminum foil substrate upon which a given sample could be collected by centrifugation. Samples were then loaded into a Sorvall AH-629 swinging bucket rotor (DuPont Corp., Wilmington, Del.) and centrifuged at 35,000 g, 5° C., for 90 min.
After centrifugal orientation, sample supernatants were aspirated and aluminum foil substrates, each supporting a single membrane pellet, were removed from the sedimentation cells. […]
The d-space for any given membrane multibilayer is a measurement of the unit cell periodicity of the membrane lipid bilayer (e.g., the distance from the center of one lipid bilayer to the next including surface hydration), and is calculated from Bragg's Law, hλ=2 d sin θ, where h is the diffraction order, λ is the wavelength of the x-ray radiation (1.54 Å), d is the membrane lipid bilayer unit cell periodicity, and θ is the Bragg angle equal to one-half the angle between the incident beam and scattered beam.
The presence of cholesterol domains in a given membrane sample results in the production of distinct Bragg (diffraction) peaks having singular periodicity values of 34 and 17 Å (typically referred to as first- and second-order cholesterol domain peaks). Under the specific temperature and relative humidity conditions established for these experiments, the second-order, 17 Å cholesterol domain peak was well-delineated from other, neighboring cholesterol and phospholipid diffraction peaks and was thus used to quantitate relative cholesterol domain peak intensity. […]

human sdLDL = assay: Copper-induced sdLDL oxidation, TBARS (Example 6); type: biochemical; details: 1.0 μM to 10.0 μM; 2 hr copper oxidation
Procedure: An experiment to study the antioxidant effect of EPA in small dense LDL (“sdLDL”) was performed. EPA was purchased from Sigma-Aldrich (Saint Louis, Mo.) and solubilized in ethanol to 1 mM under nitrogen atmosphere. Vitamin E (α-tocopherol) was purchased from Sigma-Aldrich and prepared in ethanol at 1.0 mM (c=3.06×10^4 M^−1 cm^−1 at 294 nm) just prior to experimental use. All test compounds were further diluted in ethanol or aqueous buffer as needed.
Venous blood was collected from healthy volunteers into vacutainer tubes containing sodium EDTA. Plasma was separated by centrifugation at 3000 g for 25 min at 4° C. and adjusted to a density of 1.020 g/mL with KBr. […]
LDL and sdLDL subfractions (0.6 mL each) were incubated with either 10 μL vehicle (ethanol) or 10 μL drug stock solution for 30 min to 1 hr at 37° C. […] Sample TBARS concentrations were determined spectrophotometrically by measuring sample absorbances against a standard curve derived from the hydrolysis of 1,1,3,3-tetramethoxypropane.
Data are presented as mean±S.D. for (N) separate samples or treatment groups. Differences between groups were analyzed using the two-tailed, Student's t-test (for comparisons between only two groups) or ANOVA followed by Dunnett or Student-Newman-Keuls multiple comparisons post-hoc analysis (for comparisons between three or more groups). […]

SMILES	effect on membrane structure compared to control [1]	cholesterol domain peaks ([1]; 96 hours of oxidative conditions)	effect on cholesterol domain formation (cholesterol domain peak intensity) compared to control ([1]; any experimental time point (FIG. 5))	sdLDL oxidation (human sdLDL)
Cc1c(C)c2c(c(C)c1O)CC[C@@](C)(CCC[C@H](C)CCC[C@H](C)CCCC(C)C)O2 [vitamin E, α-tocopherol, reference compound]	no appreciable effect on membrane structure	disproportionately greater	no significant effect on cholesterol domain formation	did not inhibit sdLDL oxidation except at the highest concentration
CC/C=C\C/C=C\C/C=C\C/C=C\C/C=C\CCCC(=O)O [EPA, cis-5,8,11,14,17-Eicosapentaenoic acid]	no appreciable effect on membrane structure	–	–	inhibited sdLDL oxidation over a broad range of concentrations
